Measurements: patent US10155802B2, “Locally-active anticoagulants and anti-inflammatory agents” (priority 2011, dated 2018)
Positions of bridges follow the written chain, without caps; N, C: chain ends. Non-standard residues stand in square brackets, D forms with d. Residues, ends and D or L forms follow the SMILES beside them. Chains are numbered I, II in the order given. No end group written: not given here. *: point of attachment. Benzenesulfonyl(4-tBu) = CC(C)(C)c1ccc(S(=O)(=O)*)cc1; Dansyl = CN(C)c1cccc2c(S(=O)(=O)*)cccc12; dTic = O=C(O)[C@H]1Cc2ccccc2CN1; dPip = O=C(O)[C@H]1CCCCN1

Tests used:
Assay type in all cases: biochemical
[1] = biological target: T1, Human α-thrombin (Homo sapiens, UniProt P00734); test: Thrombin inhibition constants of monovalent active-site moieties and TWE1 (method not described)
T1 construct: Human α-thrombin was purchased from Haemotologic Technologies, Inc., VT, USA; purchased Haemotologic Technologies, Inc., VT, USA

[2] = tested on: pooled human plasma; test: Activated partial thromboplastin time (APTT) clotting assay; details: 37° C.; concentration for 50% of maximum delay in clotting time; read-out: MTC50 (APTT)
Protocol: (§1) Prothrombin (clotting) time (PT) or activated partial thromboplastin (clotting) time (APTT) assays were carried out at certain concentrations of the thrombin inhibitors of the present invention using pooled human plasma with addition of thromboplastin or activated partial thromboplastin to initiate clotting. The assays employed kits from Biopool International (Ventura, Calif., USA) or from Pacific Haemostasis (Middletown, Va., USA) using the procedures supplied by the manufacturer. Briefly, the stock solution of an inhibitor (with the concentration determined using UV-based OD determination, see Gill 1989) is diluted in a buffer of 20 mM HEPES and 150 mM NaCl at pH 7.4 (HBS) to a final volume of 50 μL, to which is added the reconstituted normal plasma (Product #CMS-176172 from Fisher Scientific) in an equal volume. This solution mixture is equilibrated at 37° C. for 2 minutes before 50 μL of the APTT-10XL solution (CMS-022927) is introduced forcibly to ensure proper mixing. This new mixture was incubated at 37° C. for another 5 minutes, which is followed by the addition of 50 μL of 0.02 M […] (Fisher Scientific CMS-022925) pre-warmed at 37° C. For the prothrombin time (PT) assay, an inhibitor is diluted in HBS to a final volume of 25 μL, to which is added the reconstituted control plasma (Fisher Scientific CMS-176172) in an equal volume. This solution mixture is equilibrated at 37° C. for 5 minutes before addition of 100 μL of the thromboplastin solution (CMS-176099) pre-warmed at 37° C. For APTT assays, inhibitory activities of the peptides are expressed as concentrations needed to achieve 50% of the maximum delay in clotting time (MCT50) as compared to the absence of thrombin inhibitors (Maraganore 1989). For PT assays, inhibitory activities are measured as the concentrations of the peptides that prolong the clotting time by 50% (IC50) of that of the normal control plasma (Maraganore 1990). PT and APTT assays were also carried out using slightly modified experimental procedures. Thus, 50 μL of a control plasma (Pacific Hemostasis) solution was added to 100 μL HBS (20 mM HEPES and 150 mM NaCl at pH 7.4) containing varied concentrations of the peptides of this invention. After incubation at 37° C. for 5 min, the mixture was added to 50 μL of the thromboplastin or activated partial thromboplastin reagent. Clotting of the plasma was monitored by change in absorbance at 420 nm using a SpectraMax™ plate reader.

[3] = tested on: pooled human plasma; test: Prothrombin time (PT, thromboplastin) clotting assay
Protocol: as §1

[4] = biological target: thrombin (Homo sapiens, UniProt P00734); test: Fibrinogen clotting assay (concentration needed to double the clotting time = IC50)
Protocol: The same enzyme kinetic assays were used to determine the inhibitory activities of MH2 and two MH2-derived peptides, MH2-allGS and MH2-GS (Table 4). Clotting assays were carried out to determine the inhibitory activities of the rest of the MH2 peptides by use of the protocols described previously (DiMaio 1990; Taka 2000; Su 2004). The assay employs bovine plasma fibrinogen dissolved at 0.1% in 50 mM Tris-Cl, 100 mM NaCl, 0.1% PEG-8000 at pH 7.6 (i.e. the clotting buffer). In addition to the use of optical densities or ODs (Gill 1989), concentrations of the peptide stock solutions were ranked (and corrected when necessary) by use of quantitative proton NMR spectroscopy (Cavaluzzi 2002). Each assay mixture contained a certain concentration of the peptide, and the reaction was started by the addition of human thrombin to a final concentration of approximately 0.5 nM. Optical absorbance of the assay mixtures was measured at 420 nm using the Spectramax™ plate reader. The onset clotting time was determined as an intersection of the baseline and the tangent line at point of inflection of the clotting curve. The concentration of an MH2 peptide needed to double the clotting time was defined as IC50 (DiMaio 1990) as illustrated in FIG. 4 and summarized in Table 4. The correlation between IC50 values and linker unfolding is similar to that for the BTI series of inhibitors (Table 3). […] (Table 3).

[5] = biological target: T1, Human α-thrombin; test: Inhibition of thrombin-catalyzed hydrolysis of chromogenic substrate S-2366 (inhibition constant Ki); details: Ki
[6] = monovalent binding moieties for the active site of thrombin

| Molecule | Ki [1, 6] [µM] | further results |
| --- | --- | --- |
| CC[C@H](C)[C@H](N)C(=O)N[C@@H](CCCNC(=N)N)C(=O)N[C@@H](Cc1ccccc1)C(=O)N[C@H](C(=O)N[C@@H](CC(=O)O)C(=O)NCC(=O)N[C@@H](CCC(=O)O)C(=O)N[C@@H](Cc1c[nH]c2ccccc12)C(=O)N[C@H](C(=O)N[C@@H](Cc1c[nH]c2ccccc12)C(=O)N[C@@H](CC(=O)O)C(=O)N[C@@H](CC(=O)O)C(=O)N[C@@H](C)C(=O)N[C@H](C(=O)N[C@@H](CCCCN)C(=O)N[C@H](C(=O)N[C@@H](Cc1c[nH]c2ccccc12)C(=O)N[C@H](C(=O)N[C@H](C(=O)N[C@H](C(=O)N[C@@H](CCC(=O)O)C(=O)NCC(=O)N[C@@H](CC(=O)O)C(=O)N[C@@H](Cc1ccccc1)C(=O)N[C@@H](CCC(=O)O)C(=O)N[C@@H](CCC(=O)O)C(=O)N[C@H](C(=O)N1CCC[C@H]1C(=O)N[C@@H](CCC(=O)O)C(=O)N[C@@H](CCC(=O)O)C(=O)N[C@@H](Cc1ccc(O)cc1)C(=O)N[C@@H](CC(C)C)C(=O)N[C@@H](CCC(N)=O)C(=O)O)[C@@H](C)CC)[C@@H](C)O)C(C)C)[C@@H](C)O)[C@@H](C)O)[C@@H](C)O)[C@@H](C)O)[C@@H](C)O [MH2-wZIP6] | – | EC50 [2]: 3 µM; concentrations required in PT-APTT curves relative to MH2-GS [3]: about 2.5 times; IC50 ([3]; 37° C., concentration that prolongs clotting time by 50%): < 0.4 µM; IC50 ([4]; IC50 (anti-clotting), T = 37° C.): 0.053 µM |
| CC[C@H](C)[C@H](NC(=O)[C@H](CCC(=O)O)NC(=O)[C@H](CCC(=O)O)NC(=O)[C@H](Cc1ccccc1)NC(=O)[C@H](CC(=O)O)NC(=O)CNC(=O)[C@H](CCC(=O)O)NC(=O)[C@@H](NC(=O)[C@H](Cc1c[nH]c2ccccc12)NC(=O)[C@@H](NC(=O)[C@H](Cc1c[nH]c2ccccc12)NC(=O)[C@@H](NC(=O)[C@H](CCCCN)NC(=O)[C@@H](NC(=O)[C@H](C)NC(=O)[C@H](CC(=O)O)NC(=O)[C@H](CC(=O)O)NC(=O)[C@H](Cc1c[nH]c2ccccc12)NC(=O)[C@@H](NC(=O)[C@H](Cc1c[nH]c2ccccc12)NC(=O)[C@H](CCC(=O)O)NC(=O)CNC(=O)[C@H](CC(=O)O)NC(=O)[C@@H](NC(=O)[C@H](Cc1ccccc1)NC(=O)[C@H](CCCNC(=N)N)NC(=O)[C@@H]1CCCN1)[C@@H](C)O)[C@@H](C)O)[C@@H](C)O)[C@@H](C)O)[C@@H](C)O)[C@@H](C)O)C(=O)N1CCC[C@H]1C(=O)N[C@@H](CCC(=O)O)C(=O)N[C@@H](CCC(=O)O)C(=O)N[C@@H](Cc1ccc(O)cc1)C(=O)N[C@@H](CC(C)C)C(=O)N[C@@H](CCC(N)=O)C(=O)O [BRI-T109] | – | Ki ([5]; FIG. 14A): 1.45 µM |
| variant of BTI1: disulfide-bond linkage between Bbs-Arg-(D-Pip)-Gly-Cys and 15N-labelled Cys-(GS)8-GDFEEIPEEYLQ (peptide 1 {Benzenesulfonyl(4-tBu)}-R[dPip]GC; peptide 2 CGSGSGSGSGSGSGSGSGDFEEIPEEYLQ; disulfide I:4-II:1; also: chain 2 15N-labelled) [TWE1] | – | Ki ([1]; bivalent inhibitor TWE1): 0.0022 ± 0.0004 µM |
| CC[C@H](C)[C@H](N)C(=O)N[C@@H](CCCNC(=N)N)C(=O)N[C@@H](Cc1ccccc1)C(=O)N[C@H](C(=O)N[C@@H](CC(=O)O)C(=O)NCC(=O)N[C@@H](CCC(=O)O)C(=O)NCC(=O)N[C@H](C(=O)N1CCC[C@H]1C(=O)N[C@@H](CC(N)=O)C(=O)N1CCC[C@H]1C(=O)N[C@@H](CCC(=O)O)C(=O)N[C@@H](CO)C(=O)N[C@@H](Cc1c[nH]cn1)C(=O)N[C@@H](CC(N)=O)C(=O)N[C@@H](CC(N)=O)C(=O)NCC(=O)N[C@@H](CC(=O)O)C(=O)N[C@@H](Cc1ccccc1)C(=O)N[C@@H](CCC(=O)O)C(=O)N[C@@H](CCC(=O)O)C(=O)N[C@H](C(=O)N1CCC[C@H]1C(=O)N[C@@H](CCC(=O)O)C(=O)N[C@@H](CCC(=O)O)C(=O)N[C@@H](Cc1ccc(O)cc1)C(=O)N[C@@H](CC(C)C)C(=O)N[C@@H](CCC(N)=O)C(=O)O)[C@@H](C)CC)[C@@H](C)O)[C@@H](C)O [MH2] | – | IC50 ([4]; IC50, printed inside the sequence cell of Table 1, temperature not stated): ~0.014 µM |
| CC[C@H](C)[C@H](NC(=O)[C@H](CCC(=O)O)NC(=O)[C@H](CCC(=O)O)NC(=O)[C@H](Cc1ccccc1)NC(=O)[C@H](CC(=O)O)NC(=O)CNC(=O)[C@H](CCC(=O)O)NC(=O)[C@@H](NC(=O)[C@H](Cc1c[nH]c2ccccc12)NC(=O)[C@@H](NC(=O)[C@H](Cc1c[nH]c2ccccc12)NC(=O)[C@@H](NC(=O)[C@H](CCCCN)NC(=O)[C@@H](NC(=O)[C@H](C)NC(=O)[C@H](CC(=O)O)NC(=O)[C@H](CC(=O)O)NC(=O)[C@H](Cc1c[nH]c2ccccc12)NC(=O)[C@@H](NC(=O)[C@H](Cc1c[nH]c2ccccc12)NC(=O)[C@H](CCC(=O)O)NC(=O)CNC(=O)[C@H](CC(=O)O)NC(=O)[C@@H](NC(=O)[C@H](Cc1ccccc1)NC(=O)[C@H](CCCNC(=N)N)NC(=O)[C@@H]1CCCN1C(=O)[C@H](CCCNC(=N)N)NC(=O)[C@@H]1CCCN1C(=O)[C@H](CCC(N)=O)NC(=O)[C@@H](N)Cc1ccccc1)[C@@H](C)O)[C@@H](C)O)[C@@H](C)O)[C@@H](C)O)[C@@H](C)O)[C@@H](C)O)C(=O)N1CCC[C@H]1C(=O)N[C@@H](CCC(=O)O)C(=O)N[C@@H](CCC(=O)O)C(=O)N[C@@H](Cc1ccc(O)cc1)C(=O)N[C@@H](CC(C)C)C(=O)O [BRI-T207] | – | Ki ([5]; T = 37° C., enzyme kinetics, chromogenic substrate): ~0.4 µM |

The next lines start with results.

| Ki [1, 6] [µM] | Molecule | further results |
| --- | --- | --- |
| 1.57 ± 0.06 | N=C(N)NCCC[C@H](NC(=O)[C@@H]1CCCN1C(=O)[C@H](N)Cc1ccccc1)C(=O)O [H-dFPR] | – |
| 0.86 ± 0.06 | CN(C)c1cccc2c(S(=O)(=O)N[C@@H](CCCNC(=N)N)C(=O)N3Cc4ccccc4C[C@@H]3C(N)=O)cccc12 [Dansyl-R-(d-Tic)-NH2] (Dansyl-Arg-[dTic]-NH2) | – |
| 0.37 ± 0.04 | CN(C)c1cccc2c(S(=O)(=O)N[C@@H](CCCNC(=N)N)C(=O)N3CCCC[C@@H]3C(N)=O)cccc12 [Dansyl-R-(d-Pip)-NH2] (Dansyl-Arg-[dPip]-NH2) | – |
| 170 ± 18 | CC(=O)N[C@H](Cc1ccccc1)C(=O)N1CCC[C@H]1C(=O)N[C@@H](CCCNC(=N)N)C(=O)O [Ac-dFPR] | – |
| 4.38 ± 0.18 | CC(C)(C)OC(=O)N[C@H](Cc1ccccc1)C(=O)N1CCC[C@H]1C(=O)N[C@@H](CCCNC(=N)N)C(=O)O [Boc-dFPR] | – |
| 1.13 ± 0.03 | CC(C)(C)c1ccc(S(=O)(=O)N[C@@H](CCCNC(=N)N)C(=O)N2CCCC[C@@H]2C(N)=O)cc1 [Bbs-R-(d-Pip)-NH2] | – |
| 2.26 ± 0.1 | CC(C)(C)c1ccc(S(=O)(=O)N[C@@H](CCCNC(=N)N)C(=O)N2CCCC[C@@H]2C(=O)NCC(N)=O)cc1 [Bbs-R-(d-Pip)-G-NH2] | – |
| 6 ± 1 | CC(C)(C)c1ccc(S(=O)(=O)N[C@@H](CCCNC(=N)N)C(=O)N2CCCC[C@@H]2C(=O)N[C@@H](Cc2c[nH]c3ccccc23)C(N)=O)cc1 [Bbs-R-(d-Pip)-W-NH2] | – |
